# Conditions: buffer; pH 7.4; 200.0 µM
row,SMILES,solubility kinetic [µg/mL]
1,Cn1ccsc1=NC(=O)c1ccc(S(C)(=O)=O)cc1,> 44.5
2,COc1ccccc1OC(=O)Nc1ccc(Cl)cc1,17.8
3,Cc1cccc(C)c1N1CCN(C(=O)Cn2cncn2)CC1,> 44.9
4,Cn1c(=O)c2c([nH]c(=S)n2CCCc2ccccc2)n(C)c1=O,35.8
5,O=C(CCN1CCOCC1)Nc1ccc(F)cc1,30.1
6,O=C(CSc1nncs1)Nc1ccc2c(c1)OCO2,> 44.3
7,COc1ccccc1C(=O)N1CCC(N2CCN(c3ccccc3)CC2)CC1,41.5
8,O=C(CSc1cccc2cccnc12)N/N=C/c1ccncc1,> 48.4
9,S=C(NCc1cccs1)Nc1cc(Cl)cc(Cl)c1,0.7
10,COc1ccc(NC(=O)CSc2nc3ccc(OC)cc3[nH]2)cc1,6
11,CC(=O)N1Cc2ccccc2CC1C(=O)NCc1ccccc1F (centres undefined),> 49
12,O=C(OCC(=O)c1c[nH]c2ccccc12)c1cncc(Br)c1,7.5
13,CC(=O)c1ccc(NC(=S)Nc2cccc3ccccc23)cc1,10.6
14,COc1ccc2oc(=O)c(C(=O)NCc3ccc(F)cc3)cc2c1,0.8
15,Cc1ccc(NC(=O)N2CCCC(c3ccccc3)C2)cc1 (centres undefined),1.6
16,N#Cc1nc(-c2ccc(Cl)cc2)oc1NCC1CCCO1 (centres undefined),2.5
17,COc1ccc(CC(=O)OC(C)C(=O)Nc2c(C)n(C)n(-c3ccccc3)c2=O)cc1OC (centres undefined),> 68
18,S=C(NCc1ccncc1)Nc1ccc(Br)cc1,> 48.3
19,COC(=O)c1ccc(N2C(=O)C3C4C=CC(CC4)C3C2=O)cc1 (centres undefined),20.1
20,O=c1c2ccccc2nc(-c2ccccc2Cl)n1-c1ccc(O)cc1,> 52.3
21,C/C(=N\O)c1oc2ccc3c(C)cc(=O)oc3c2c1C,< 0.6
22,CCOc1cc(C=O)ccc1OCC(N)=O,> 33.5
23,COc1cccc(C(=O)NNC(=O)CCC(=O)O)c1,> 39.9
24,Cc1cc(C(=O)Nc2ccc3c(c2)OCCO3)ccc1[N+](=O)[O-],< 0.3

row,SMILES,solubility kinetic [µg/mL]
1,O=C(Nc1ccc(Cl)cc1)C1C2CCCCC21 (centres undefined),< 0.5
2,COC(=O)c1cc(C(=O)Nc2ccc(Cl)cn2)cc([N+](=O)[O-])c1,2.5
3,Cn1ncc(Br)c1NC(=O)c1ccco1,> 40.5
4,Cc1ccc(NC(=O)COC(=O)CCNS(=O)(=O)c2c(Cl)cccc2Cl)cc1,48.5
5,N#Cc1cc(-c2ccccc2)nc(N2CCNCC2)n1,> 39.8
6,CCOC(=O)C1CCN(C/C=C/c2ccccc2)CC1,27.2
7,COc1ccc(NC(=O)c2cc3ccccc3o2)cc1S(=O)(=O)N1CCCCC1,9.2
8,CC(C)N1CCN(Cc2c[nH]c3ccccc23)CC1CCO (centres undefined),32.8
9,NC(=O)Cn1cc(C(=O)C(=O)N2CCOCC2)c2ccccc21,> 47.3
10,CC1CCN(C(=S)NC(=O)c2ccc(C(C)(C)C)cc2)CC1,3.1
11,CS(=O)(=O)Nc1ccc(C(=O)Nc2ccc3ccccc3c2)cc1,< 0.4
12,NC(=O)c1ccc(NC(=O)CN2CCOCC2)cc1,35.6
13,O=C(Nc1ccc(N2CCOCC2)cc1)c1cnccn1,> 42.6
14,O=C(NCc1cccnc1)Nc1ccc([N+](=O)[O-])cc1,> 40.8
15,CCC(=O)Nc1ccc(C(=O)CN2CCC(C)CC2)cc1,39.4
16,CC1CC2(C)CC(C)C1(COC(=O)Nc1ccccc1)CO2 (centres undefined),44.6
17,COc1ccc2c(c1)C(NC(C)=O)C(=O)N2CCc1ccccc1 (centres undefined),46.6
18,S=C1NCN(Cc2cccnc2)CN1,> 31.2
19,O=[N+]([O-])C1=CC=C2C(=NC3(CCCCC3)N2O)C1=NC1CCCCC1,24.6
20,CCOC(=O)N1CCN(C(=O)/C=C/c2ccc(C(C)(C)C)cc2)CC1,22.9
21,Cc1ccc(C(C)C)c(OCCn2ccnc2C)c1.O=C(O)C(=O)O,46.7
22,N#Cc1ccc(/C=C/C(=O)c2ccc3c(c2)OCO3)cc1,2.9
23,COc1nc(Nc2ccccc2)nc(OC)n1,> 34.8
24,CN(C)c1ccc(CNc2ncnc3sccc23)cc1,29.7

row,SMILES,solubility kinetic [µg/mL]
1,COc1ccc(C(=O)N2CCN(CCc3ccccn3)CC2)cc1.Cl,> 54.3
2,COc1ccccc1NC(=O)N1C[C@@H]2C[C@@H](C1)c1cccc(=O)n1C2,> 50.9
3,CCOc1ncccc1C(=O)NCCc1ccc(OC)cc1,> 45.1
4,O=C(C#Cc1ccccc1)Nc1ccc(F)cc1,2.4
5,CCOC(=O)c1c(C)n(Cc2ccccc2)c2ccc(O)cc12,< 0.7
6,Cn1c(CO)nc2c3ccccc3ccc21,> 31.8
7,COc1ccc(S(=O)(=O)N2CCc3ccccc32)cc1C(=O)Nc1ccc(NC(C)=O)cc1,7.2
8,O=C(CC1C(=O)NCCN1Cc1cccc(F)c1)NC1CCC1 (centres undefined),42
9,CCCN1C(=O)c2ccccc2NC1c1ccc(O)c(OCC)c1 (centres undefined),> 49
10,CCCN1CCC(NC(=O)C2CCN(C(C)=O)CC2)CC1,> 44.3
11,CCOC(=O)c1c(C)nsc1NCc1ccccc1,8.5
12,CCN(C(=O)COC(=O)c1ccc(Cl)c(S(=O)(=O)N2CCCCC2)c1)C1CCS(=O)(=O)C1 (centres undefined),56.6
13,CCN1CC(CN(C)Cc2nc(-c3ccc(Cl)cc3)no2)CC1=O (centres undefined),> 52.3
14,O=c1c2ccccc2nc(/C=C/c2cccnc2)n1CCc1ccccc1,22.1
15,CN1CCCN(C(=O)c2cccc(Cl)c2)CC1,> 37.9
16,COc1ccc(NC(=O)CCCc2nc3ccccc3c(=O)[nH]2)cc1Cl,14.5
17,CN(C(=O)/C=C/c1ccc2c(c1)OCO2)c1ccccc1,34.7
18,C=CCN1CC[C@]23c4c5ccc(O)c4O[C@H]2C(=O)CC[C@@]3(O)[C@H]1C5.Cl,> 54.6
19,COc1ccc2c(c1)c(C(C)=O)c(C)n2C,> 32.6
20,COc1ccc(NC(=O)c2ccc(N3CCCC3=O)cc2)cc1Cl,2.1
21,COc1cccc(OC)c1C(=O)NC(=O)Oc1c(F)cccc1F,43.8
22,Cc1cc2[nH]c3ccccc3c2cn1,> 27.3
23,O=C(Nc1nc(-c2ccc(F)cc2)cs1)c1cccnc1,0.6
24,COc1cc(C(=O)NCC(=O)N2CCN(S(=O)(=O)c3ccccc3C(F)(F)F)CC2)cc(OC)c1OC,> 81.8

row,SMILES,solubility kinetic [µg/mL]
1,COC(=O)C(Cc1c[nH]c2ccccc12)N1CCS(=O)(=O)CC1 (centres undefined),> 50.5
2,Cc1ccc(NC(=S)N2CCc3[nH]c4ccccc4c3C2)cc1,0.8
3,CCCN(CC(=O)Nc1ccccc1OC)C(=O)c1ccc(=O)[nH]c1,> 51.5
4,COc1ccc(CCC(=O)OCC(=O)NCc2ccc(OC)c(OC)c2)cc1OC,> 62.6
5,CCCN1CCN(C(=O)c2oc3c(Cl)cccc3c2C)CC1,35.7
6,Cc1nc2ccccc2c(=O)n1CCc1ccc(O)cc1,> 42
7,CCCC1NC(=S)NC(C)=C1C(C)=O (centres undefined),> 31.8
8,Clc1ccc(-c2csc(Nc3cccnc3)n2)cc1,0.3
9,O=C(COC(=O)c1cc(Cl)nc(Cl)c1)Nc1ccc(Cl)c(S(=O)(=O)N2CCOCC2)c1,31.7
10,O=C1c2ccccc2C(=O)N1c1cc([N+](=O)[O-])ccn1,29.2
11,CC(=O)Nc1ccc(S(=O)(=O)Nc2ccc3c(c2)CCC3)cc1,4.2
12,Cc1cc(Nc2ccc(N(C)C)cc2)n2ncnc2n1,> 40.2
13,O=C(NCCCO)C(=O)c1c(-c2ccccc2)cc2ccccn12,> 48.4
14,COc1ccc(CCNC(=O)COC(=O)CCC(=O)c2cccs2)cc1OC,> 60.8
15,Cc1cc(=O)[nH]c(Nc2ccc(N(C)C)cc2)n1,> 36.6
16,COc1ccc(C(=O)N2C[C@H]3C[C@@H](C2)c2cccc(=O)n2C3)cc1OC,> 53.2
17,O=C(c1cc2ccccc2o1)N1CCCC1,> 32.3
18,O=C(CCC(=O)N1CCCC1)Nc1ccc([N+](=O)[O-])cc1,41.3
19,CC(=O)Nc1ccc(NS(=O)(=O)c2cc([N+](=O)[O-])ccc2C)cc1,2.6
20,O=C(Nc1ccc(N2CCOCC2)nc1)c1ccccc1Cl,42
21,CN(C)C=Nc1nonc1-c1ccc(Cl)cc1,1.4
22,CCS(=O)(=O)N1CCC(C(=O)Nc2cccc(F)c2)CC1,> 47.2
23,CC(NC(=S)Nc1ccccc1)C(c1cccs1)N1CCOCC1 (centres undefined),3.1
24,Cc1ccc(-c2nonc2NC(=O)c2ccco2)cc1,> 40.4

row,SMILES,solubility kinetic [µg/mL]
1,O=C(CCC(=O)N1CCN(c2ccccn2)CC1)c1cccs1,> 49.4
2,Cc1cc(NC(=O)Nc2ccc(Cl)c(Cl)c2)no1,< 0.2
3,CSc1ncc(-c2ccc(Cl)cc2)[nH]1,29.3
4,COC(=O)c1ccccc1NC(=O)N1CCN(c2ccc(F)cc2)CC1,4.4
5,COc1cc(S(=O)(=O)N2CCOCC2)ccc1NC(=O)COC(=O)c1ccc(Cl)nc1,6.4
6,CCOC(=O)c1sc(NC(=O)CSC(=S)N2CCOCC2)nc1C,0.6
7,Cc1cc(C)cc(N2CC(O)Cn3c2nc2c3c(=O)[nH]c(=O)n2C)c1 (centres undefined),34.3
8,Cc1cc(C)cc(NC(=O)COC(=O)c2cc(C)oc2C)c1,< 0.6
9,C=CCNC(=S)Nc1cc(C)ccn1,> 31.1
10,CC(O)CNCc1ccccc1C(F)(F)F.Cl (centres undefined),> 40.5
11,C(=C\c1ccco1)/c1ccc2ccccc2n1,10.7
12,COCC(=O)Nc1c(C(=O)N2CCCC2)oc2ccccc12,40.4
13,Cc1ccc(C(=O)Nc2ccc(NC(=O)c3ccc(C)o3)cc2)o1,1.7
14,CCOC(=O)Cn1c(=O)oc2cc(S(=O)(=O)NC(C)(C)CC)ccc21,53.8
15,Cn1nccc1C(=O)OCC(=O)Nc1cccc(Cl)c1,> 44.1
16,COc1ccc(CCNC(=O)c2noc(C(C)C)c2[N+](=O)[O-])cc1OC,> 54.5
17,O=C(O)C1CC=CCC1C(=O)NCc1ccc(Cl)c(Cl)c1 (centres undefined),> 49.2
18,CC1CCCCN1C(=O)CNCC1CCCO1.O=C(O)C(=O)O (centres undefined),> 49.6
19,O=C(O)C1(Cc2nc3ccccc3[nH]2)CCCC1,26.8
20,O=C(c1ccccc1)c1cc2cc(Cl)ccc2[nH]1,< 0.5
21,Clc1ccc(COn2ccnc2)cc1Cl,> 36.5
22,c1ccc(CN2CCN(c3nc4ccccc4s3)CC2)cc1,1
23,COCCCNC(=O)CN1C(=O)c2cccc3cccc1c23,> 44.8
